Data: patent publication US20220241276A1, “COMPOSITIONS AND METHODS FOR TREATING CANCER” (The Regents of the University of Michigan, priority 2019, published 2022)
Values joined by “and” are separate entries in the source; they are usually repeats but may differ in a detail not shown here. Identical values can stand only once. Like-named read-outs stand apart in the source and are kept apart here.

Legend:
[1] = tested on: advanced adrenocortical carcinoma (ACC); experiment: Phase 3 study (GALACCTIC; Fassnacht et al. Lancet Oncology 2015) of OSI-906/linsitinib vs placebo in patients with advanced adrenocortical carcinoma; assay type: in vivo, human; details: prior trial, 6/90 patients, unselected
From the text: In some embodiments, the agent is an IGF1R inhibitor.
This includes 4 patients who achieved a partial response (PR) by RECIST criteria (Eisenhauer et al. Eur J. Cancer. 2009), and 2 patients who achieved long-term stable disease (SD; also by RECIST criteria, Eisenhauer et al. Eur J. Cancer. 2009).

[2] = tested on: advanced adrenocortical carcinoma (ACC); details: cited from earlier work
[3] = tested on: adrenocortical carcinoma (ACC); details: cited from earlier work
[4] = individual patients G-L, non-responders to OSI-906, per patient

SMILES	Response rate [1] [%]	Patients with favorable response / treated patients ([2]; OSI-906-treated arm, unselected advanced ACC)	Kaplan-Meier progression-free survival curves, linsitinib-treated vs placebo-treated ([2]; all patients of the trial)	Progression-free survival (days) ([2]; individual patients A-F, responders to OSI-906, per patient, '+' given after value)	Best change from baseline in sum of target lesions (%) ([2]; individual patients A-F, responders to OSI-906, per patient)	Best change from baseline in sum of target lesions (%) [2, 4]	Progression-free survival [2, 4]	Number of patients who achieved a partial response (PR) ([2]; of 90 OSI-906-treated patients, RECIST) [patients]	Drug toxicities ([2]; patients with ACC)	Primary endpoint of the Phase 3 study ([2]; patients with ACC)	Progression-free survival of long-term durable responders ([2]; small subset of linsitinib-treated patients, not seen with placebo) [days]	Patients who recur during adjuvant therapy after surgery or progress during therapy for non-resectable disease ([3]; mitotane therapy)	Efficacy ([3]; recent studies)	Toxicity ([3]; recent studies)
C[C@]1(O)C[C@@H](c2nc(-c3ccc4ccc(-c5ccccc5)nc4c3)c3c(N)nccn32)C1 [OSI-906, linsitinib]	6.7	6/90	no statistical difference	169+ days and 504+ days and 525+ days and 205+ days and 433+ days and 440+ days	−50% and −45.625% and −45% and −5.882% and 0% and −78.46%	32.26% and 35.29% and 38.28% and 48.35% and 23.51%	38 days and 41 days and 42 days (3×) and 48 days	4	limited and manageable	failed to reach the primary endpoint	> 150			
Clc1ccc(C(c2ccccc2Cl)C(Cl)Cl)cc1 (centres unmarked) [mitotane]												up to 90%	only marginally effective	highly toxic
